The values below come from patent publication US20100061928A1, “LABELLED ANALOGUES OF HALOBENZAMIDES AS RADIOPHARMACEUTICALS” (Institut National De La Sante et De La Recherche Medicale …, priority 2006, published 2010).

One data set relates to human melanoma (M4Beu). In words: Cytotoxicity, Hoechst test, M4Beu.
The subject of another data set is murine melanoma (B16 F0). The experiment in a line: Cytotoxicity, Hoechst test, B16 F0. The settings on record: read-out: IC50 B16; B16 F0 murine melanoma, 48 hours incubation, Hoechst test.
Data set [1] has as its system human fibroblast cell lines. In words: Cytotoxicity, Hoechst test, human fibroblasts. The settings on record: read-out: IC50 Fibroblast; human fibroblasts, 48 hours incubation, Hoechst test.
Protocol: (§1) The B16 F0, M4Beu and fibroblast lines are cultured in 75 cm^2 dishes comprising 12 ml of Eagle's essential medium with Earle's salts and Glutamax (Gibco-BRL, Paisley, Scotland) supplemented with 10% foetal calf serum, a solution of vitamins at 1× (Gibco), 1 mM sodium pyruvate (Gibco), a solution of nonessential amino acids at 1× (Gibco) and 4 μg/ml of gentamicin (antibiotic).
(§2) The cells are maintained at 37° C. in an incubator under an atmosphere comprising 5% CO2.
(§3) The cells (5×10^3) in 150 μl of culture medium are inoculated in 96-well plates (Nunclon™, Nunc, Roskilde, Denmark). […] The stock solutions (200×) are prepared with DMSO and are then stored at −20° C. 50 μl of a solution comprising stock solution and culture medium are subsequently added to the various wells (taking into account the different dilutions). Each test is carried out in triplicate.
(§4) The amount of cellular DNA is subsequently measured by the Hoechst test. […] The fluorescence obtained is measured using a Fluoroskan 96-well at the excitation wavelength at 360 nm and emission wavelength at 460 nm. Under these conditions, the fluorescence is proportional to the cell biomass in each well. The percentage of survival is defined by the fluorescence in each well (treated) with respect to the fluorescence of the control wells (drug-free), the blanks being subtracted (drug-free and cell-free wells).
Data set [2] has as its system melanoma grafted subcutaneously (B16 F0 cells). The experiment in a line: Antitumour effectiveness by systemic administration after labelling with ^131I. The format is in vivo, C57BL6 mice. As to conditions: two doses of 18.5 MBq i.v., 6 and 10 days after induction of the tumours. As for the experimental part: The study relates to 20 C57B16 mice bearing a melanoma grafted subcutaneously by injection of 50 000 B16 F0 cells (0.1 ml). On the 17th day, the animals are weighed and the tumours are measured in two dimensions (L, l), the tumour volume being expressed by L×l^2×½. On the 18th day (D18), the mice are divided into two groups, the labelled compound [^131I]-31 with a high specific activity is administered by the i.v. route (37 MBq; 0.2 ml) to 10 mice and 10 constitute the control batch. The monitoring of the animals is carried out with all the necessary radioprotection measures and in particular the removal of the contaminated bedding, the animals are weighed and the tumours are measured every two days. Taking into account the volume of the tumours and ethical considerations, the surviving animals were euthenized on the 20th day after injection, i.e. 38 days after the tumour graft. […] The evaluation of the effectiveness of an i.v. administration of [^131I]-31 on tumour growth of C57BL6 mice which have received a subcutaneous graft of B 16 melanoma 18 days before treatment is represented in FIG. 2. The times on the abscissa are given with respect to the day of inoculation of the tumours and with respect to the day of treatment.
The evaluation of the effectiveness of an i.v. administration of [^131I]-46 on tumour growth of C57BL6 mice which have received a subcutaneous graft of B 16 melanoma is represented in FIG. 3. The times on the abscissa are given with respect to the day of inoculation of the tumours and with respect to the first day of treatment. Under these conditions, the median of survival is extended and changes from 32 days for the control animals to 39 days for the treated animals. This experiment was repeated according to the same protocol and fully superimposable results were obtained.

Data set [3] concerns grafted B16 F0 murine melanoma tumour. In words: Biodistribution of the ^125I-labelled molecules in the melanoma-bearing mouse (autoradiography of whole-body sections).
The next data set concerns tumour. The experiment in a line: Dosimetry with regard to the tumour (MIRD programme, extrapolated to ^131I).

Structures can show the parent of a compound that is named as a salt.

Protocol for human melanoma (M4Beu): as §1, §2, §3, §4
Protocol for murine melanoma (B16 F0): as §1, §2, §3
The amount of cellular DNA is subsequently measured by the Hoechst test. The plates are then defrosted at ambient temperature for 10 minutes. 100 μl of a 0.01% (w/v) solution of SDS (sodium dodecyl sulphate) in sterile distilled water are subsequently added using a microvolume dispenser. The plates (96 well) are incubated with stirring at ambient temperature for 30 minutes and are then frozen at −80° C. for one hour. The plates are subsequently defrosted at ambient temperature for 20 minutes. […] The plates are then incubated for one hour at ambient temperature, with stirring and with the exclusion of light. The fluorescence obtained is measured using a Fluoroskan 96-well at the excitation wavelength at 360 nm and emission wavelength at 460 nm. Under these conditions, the fluorescence is proportional to the cell biomass in each well. The percentage of survival is defined by the fluorescence in each well (treated) with respect to the fluorescence of the control wells (drug-free), the blanks being subtracted (drug-free and cell-free wells).

In the case of `CN(C)CCNC(=O)c1cccc2cc3ccccc3nc12` [DACA, reference compound], the concentration for half-maximal inhibition (IC50) – broadly, the concentration that inhibits the measured activity by half – in the data set with human melanoma (M4Beu) (read-out: IC50 M4Beu, M4Beu human melanoma, 48 hours incubation, Hoechst test) is 1800 nM; with murine melanoma (B16 F0) it was 190 nM; in data set [1], 7100 nM.

Consider `CCN(CC)CCNC(=O)c1cnc2cc([131I])ccc2n1.Cl` [[^131I]-46, [^131I]-N-(2-diethylaminoethyl)-6-iodoquinoxaline-2-carboxamide hydrochloride], for which the “tumour growth (in words)” value in data set [2] is reported as “clearly slowed down”. Besides, the “median of survival, treated animals” value in data set [2] (control animals 32 days) is on record as 39 days.

With `CCN(CC)CCNC(=O)c1cccc2c(Nc3ccc(NS(C)(=O)=O)cc3OC)c3cc(I)ccc3nc12` [compound 129, N-(2-diethylaminoethyl)-7-iodo-9-(4-methanesulphonamido-2-methoxyanilino)acridine-4-carboxamide dihydrochloride], the “Biodistribution, Mean, GB” value in data set [3] (1 H) worked out at 20.19; in data set [3] (6 H), 166.43. Moreover, the results for the “Biodistribution, Mean, brain” value in data set [3] (1 H) and in data set [3] (3 H) were 0.12 and 0.03, respectively. The “Biodistribution, Mean, muscle” value in data set [3] (3 H) was 0.48; in data set [3] (6 H), 0.44. Moreover, the “Biodistribution, Mean, thyroid” value in data set [3] (thyroid, 6 H) was determined as 34.81. Besides, the “cytotoxic effectiveness (in words)” value in the data set with human melanoma (M4Beu) (M4Beu human cells, compared with amsacrine) is recorded as “best effectiveness with regard to the M4Beu human cells, close to the values obtained for amscrine”. In the data set on tumour (extrapolated to 131I labelling), the Effective period was 88.3 h. Besides, the Biological period in the data set with tumour (from biodistribution data) was 162.3 hours.
